In ChEMBL document CHEMBL1158165, “Correlation between reduction potentials and inhibitions of Epstein-Barr virus activation by anthraquinone derivatives” (Bioorg Med Chem Lett, 2008):

What was measured:
Type in all cases: cell-based
Raji [1] = assay: Inhibition of 12-O-tetradecanoylphorbol-13-acetate induced EBV-early antigen activation in human Raji cells; conditions: human gammaherpesvirus 4
[2] = Cytotoxicity against human Raji cells assessed as cell viability at 1000 molar ratio; conditions: read-out: Activity
Raji [3] = assay: Inhibition of 12-O-tetradecanoylphorbol-13-acetate induced EBV-early antigen activation in human Raji cells at 1000 molar ratio relative to control; design: scale not given: the % may be the effect or the level left; conditions: human gammaherpesvirus 4
Raji [4] = assay: Inhibition of 12-O-tetradecanoylphorbol-13-acetate induced EBV-early antigen activation in human Raji cells at 500 molar ratio relative to control; design: scale not given: the % may be the effect or the level left; conditions: human gammaherpesvirus 4
Raji [5] = assay: Inhibition of 12-O-tetradecanoylphorbol-13-acetate induced EBV-early antigen activation in human Raji cells at 100 molar ratio relative to control; design: scale not given: the % may be the effect or the level left; conditions: human gammaherpesvirus 4
Raji [6] = assay: Inhibition of 12-O-tetradecanoylphorbol-13-acetate induced EBV-early antigen activation in human Raji cells at 10 molar ratio relative to control; design: scale not given: the % may be the effect or the level left; conditions: human gammaherpesvirus 4

SMILES: COc1cc2c(c(O)c1C)C(=O)c1c(O)cc(C)cc1C2=O
- logIC50 (Raji [1]): 2.48
- viability at 1000 molar ratio [2]: 60%
- Activity (Raji [3]): 1.2%
- Activity (Raji [4]): 23.2%
- Activity (Raji [5]): 50%
- Activity (Raji [6]): 93%

SMILES: COc1cc(C)cc2c1C(=O)c1c(OC)cc(O)cc1C2=O
- logIC50 (Raji [1]): 2.45
- viability at 1000 molar ratio [2]: 60%
- Activity (Raji [3]): 0%
- Activity (Raji [4]): 22%
- Activity (Raji [5]): 47.3%
- Activity (Raji [6]): 92.6%

SMILES: COc1cc(OC)c2c(c1)C(=O)c1cc(C)cc(OC)c1C2=O
- logIC50 (Raji [1]): 2.41
- viability at 1000 molar ratio [2]: 60%
- Activity (Raji [3]): 0%
- Activity (Raji [4]): 21.1%
- Activity (Raji [5]): 44%
- Activity (Raji [6]): 90.1%

SMILES: Cc1ccc2c(c1O)C(=O)c1ccccc1C2=O
- logIC50 (Raji [1]): 2.72

SMILES: COc1cc2c(c(O)c1OC)C(=O)c1c(cc(C)c(O)c1OC)C2=O
- logIC50 (Raji [1]): 2.73

SMILES: Cc1cc(O)c2c(c1)C(=O)c1cc(O)c(-c3c(C)cc4c(c3O)C(=O)c3c(O)cccc3C4=O)c(O)c1C2=O
- logIC50 (Raji [1]): 2.83

SMILES: COc1c(O)cc2c(c1O)C(=O)c1c(cc(C)c(O)c1OC)C2=O
- logIC50 (Raji [1]): 2.72

SMILES: O=C1c2cccc(O)c2C(=O)c2c(O)cccc21
- logIC50 (Raji [1]): 2.78

SMILES: Cc1cc(O)c2c(c1)C(=O)c1cc(O)cc(O)c1C2=O [EMODIN]
- logIC50 (Raji [1]): 2.48
- viability at 1000 molar ratio [2]: 70%
- Activity (Raji [3]): 1.5%
- Activity (Raji [4]): 24.8%
- Activity (Raji [5]): 51.6%
- Activity (Raji [6]): 91%

SMILES: CC(=O)Oc1cc(OC(C)=O)c2c(c1)C(=O)c1cc(C(=O)O)cc(OC(C)=O)c1C2=O
- logIC50 (Raji [1]): 2.66

SMILES: O=C1c2cccc(O)c2C(=O)c2c(O)cc(CO)cc21
- logIC50 (Raji [1]): 2.66

SMILES: Cc1cc(O)c2c(c1)C(=O)c1cc(CO)c(-c3c(O)cc4c(c3O)C(=O)c3c(O)cccc3C4=O)c(O)c1C2=O
- logIC50 (Raji [1]): 2.8

SMILES: O=C1c2ccccc2C(=O)c2ccccc21
- logIC50 (Raji [1]): 3.04

SMILES: COc1cc(O)c2c(c1)C(=O)c1cc(C)cc(OC)c1C2=O
- logIC50 (Raji [1]): 2.43
- viability at 1000 molar ratio [2]: 60%
- Activity (Raji [3]): 0%
- Activity (Raji [4]): 21.3%
- Activity (Raji [5]): 45.3%
- Activity (Raji [6]): 91.8%

SMILES: COc1cc(C)cc2c1C(=O)c1c(O)cccc1C2=O
- logIC50 (Raji [1]): 2.82

SMILES: CCc1ccc2c(c1)C(=O)c1ccccc1C2=O
- logIC50 (Raji [1]): 2.7

SMILES: COc1cc(C)cc2c1C(=O)c1c(O)cc(O)cc1C2=O [1-O-METHYLEMODIN]
- logIC50 (Raji [1]): 2.49
- viability at 1000 molar ratio [2]: 60%
- Activity (Raji [3]): 1.1%
- Activity (Raji [4]): 24.1%
- Activity (Raji [5]): 49.8%
- Activity (Raji [6]): 94.1%

SMILES: Cc1cc2c(c(O)c1-c1c(C)cc3c(c1O)C(=O)c1c(O)cc(O)cc1C3=O)C(=O)c1c(O)cc(O)cc1C2=O
- logIC50 (Raji [1]): 2.7

SMILES: O=C1c2ccccc2C(=O)c2c(O)cccc21
- logIC50 (Raji [1]): 2.77

SMILES: CC(=O)Oc1cc(O)cc2c1C(=O)c1c(O)cc(C)cc1C2=O
- logIC50 (Raji [1]): 2.69

SMILES: COc1cc2c(c(OC)c1O)C(=O)c1c(ccc(C)c1O)C2=O
- logIC50 (Raji [1]): 2.55

SMILES: O=C1c2cccc(O)c2C(=O)c2c1cc(CO)c(-c1c(CO)cc3c(c1O)C(=O)c1c(O)cccc1C3=O)c2O
- logIC50 (Raji [1]): 2.78

SMILES: O=C1c2ccc(O)cc2C(=O)c2ccc(O)cc21
- logIC50 (Raji [1]): 2.88

SMILES: Cc1cc2c(c(O)c1-c1c(C)cc3c(c1O)C(=O)c1c(O)cc(O)cc1C3=O)C(=O)c1c(O)cccc1C2=O
- logIC50 (Raji [1]): 2.8

SMILES: COc1cc2c(c(OC)c1OC)C(=O)c1c(cc(C)c(O)c1OC)C2=O
- logIC50 (Raji [1]): 2.73

SMILES: CC(=O)Oc1cc(C)cc2c1C(=O)c1c(OC(C)=O)cc(O)cc1C2=O
- logIC50 (Raji [1]): 2.7

SMILES: Cc1ccc2c(c1)C(=O)c1ccccc1C2=O
- logIC50 (Raji [1]): 2.66

SMILES: COc1c(O)c(C)cc2c1C(=O)c1c(O)cccc1C2=O [OBTUSIFOLIN]
- logIC50 (Raji [1]): 2.55
- viability at 1000 molar ratio [2]: 60%
- Activity (Raji [3]): 4.3%
- Activity (Raji [4]): 27.8%
- Activity (Raji [5]): 54.9%
- Activity (Raji [6]): 98.7%

SMILES: COc1cc(O)cc2c1C(=O)c1c(O)cc(C)cc1C2=O [QUESTIN]
- logIC50 (Raji [1]): 2.52
- viability at 1000 molar ratio [2]: 60%
- Activity (Raji [3]): 3.7%
- Activity (Raji [4]): 25.6%
- Activity (Raji [5]): 52.8%
- Activity (Raji [6]): 95.6%

SMILES: CC(=O)Oc1cc(OC(C)=O)c2c(c1)C(=O)c1cc(C)cc(OC(C)=O)c1C2=O
- logIC50 (Raji [1]): 2.67

SMILES: COc1cc(OC)c2c(c1)C(=O)c1cc(C)cc(O)c1C2=O
- logIC50 (Raji [1]): 2.5
- viability at 1000 molar ratio [2]: 60%
- Activity (Raji [3]): 2.9%
- Activity (Raji [4]): 24.2%
- Activity (Raji [5]): 51.7%
- Activity (Raji [6]): 94.7%

SMILES: Cc1cc(O)c2c(c1)C(=O)c1cccc(O)c1C2=O
- logIC50 (Raji [1]): 2.68

SMILES: COc1cc(O)c2c(c1)C(=O)c1cc(C)cc(O)c1C2=O [PHYSCION]
- logIC50 (Raji [1]): 2.5
- viability at 1000 molar ratio [2]: 60%
- Activity (Raji [3]): 1.5%
- Activity (Raji [4]): 24.7%
- Activity (Raji [5]): 51.1%
- Activity (Raji [6]): 94.2%

SMILES: Cc1cc2c(c(O)c1-c1c(C)cc3c(c1O)C(=O)c1c(O)cccc1C3=O)C(=O)c1c(O)cccc1C2=O
- logIC50 (Raji [1]): 2.86
